These results are taken from publication PMC5538713, “RORγt and RORα signature genes in human Th17 cells” (PLoS ONE, 2017).

The test system of one experiment is GABA. In words: Cerep selectivity panel. It counts as binding.
A further experiment concerns ML1. The experiment can be described thus: Cerep selectivity panel. It counts as binding.
Another experiment concerns the target T1, DA-T (Homo sapiens, UniProt Q01959).
T1 construct: purchased Cerep
The experiment can be described thus: Cerep selectivity panel. Conditions: for inhibition at 1 µM: read-out: % Inhibition at 1µM; for inhibition at 10 µM: read-out: % Inhibition at 10µM. It counts as binding. The method, then: (§1) Supplementary file pone.0181868.s003.docx: S3 Table Selectivity profile of RORγt inverse agonists A, B, C and D. Compounds were evaluated at 1 μM and 10 μM in a panel of assays against 50 receptors, ion channels and transporters (Profile service by Cerep Inc.). (DOCX) Click here for additional data file.
(§2) S3 Table. RORɣt inverse agonists A, B, C and D were evaluated at 1 µM and 10 µM in a panel of assays against 50 receptors, ion channels and transporters (Profile service by Cerep Inc.).

In the next experiment the target is T2, A2A (h) (Homo sapiens, UniProt P29274).
T2 construct: purchased Cerep
The experiment can be described thus: Cerep selectivity panel. It counts as binding. As to conditions: for inhibition at 1 µM: read-out: % Inhibition at 1µM; for inhibition at 10 µM: read-out: % Inhibition at 10µM. On the procedure: as §1, §2

The target of another experiment is T3, NK3 (h) (Homo sapiens, UniProt P29371).
T3 construct: purchased Cerep
T3 sequence (P29371 1-465): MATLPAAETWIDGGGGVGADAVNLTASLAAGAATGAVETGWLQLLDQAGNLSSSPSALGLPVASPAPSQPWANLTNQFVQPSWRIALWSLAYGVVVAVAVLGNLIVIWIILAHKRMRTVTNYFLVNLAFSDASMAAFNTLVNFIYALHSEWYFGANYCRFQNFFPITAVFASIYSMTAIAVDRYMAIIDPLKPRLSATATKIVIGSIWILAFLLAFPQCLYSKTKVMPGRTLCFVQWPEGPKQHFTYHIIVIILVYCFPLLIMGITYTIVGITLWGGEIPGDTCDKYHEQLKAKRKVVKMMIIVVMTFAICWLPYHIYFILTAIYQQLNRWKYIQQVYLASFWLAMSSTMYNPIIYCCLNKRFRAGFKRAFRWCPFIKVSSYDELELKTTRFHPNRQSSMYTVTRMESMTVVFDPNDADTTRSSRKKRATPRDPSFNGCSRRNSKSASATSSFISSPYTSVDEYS
In words: Cerep selectivity panel. It counts as binding. As to conditions: for inhibition at 1 µM: read-out: % Inhibition at 1µM; for inhibition at 10 µM: read-out: % Inhibition at 10µM. The method, then: as §1, §2

The target of another experiment is T4, V1 a (h) (Homo sapiens, UniProt P37288).
T4 construct: purchased Cerep
The experiment can be described thus: Cerep selectivity panel. It counts as binding. Conditions: for inhibition at 10 µM: read-out: % Inhibition at 10µM. On the procedure:
as §1, §2

The next experiment addresses T5, OP1 (h) (Homo sapiens, UniProt P41143).
T5 construct: purchased Cerep
In words: Cerep selectivity panel. Type of experiment: binding. Conditions: for inhibition at 1 µM: read-out: % Inhibition at 1µM; for inhibition at 10 µM: read-out: % Inhibition at 10µM. On the procedure: as §1, §2

In a further experiment the target is T6, A3 (h) (Homo sapiens, UniProt P0DMS8).
T6 construct: purchased Cerep
T6 sequence (P0DMS8 1-318): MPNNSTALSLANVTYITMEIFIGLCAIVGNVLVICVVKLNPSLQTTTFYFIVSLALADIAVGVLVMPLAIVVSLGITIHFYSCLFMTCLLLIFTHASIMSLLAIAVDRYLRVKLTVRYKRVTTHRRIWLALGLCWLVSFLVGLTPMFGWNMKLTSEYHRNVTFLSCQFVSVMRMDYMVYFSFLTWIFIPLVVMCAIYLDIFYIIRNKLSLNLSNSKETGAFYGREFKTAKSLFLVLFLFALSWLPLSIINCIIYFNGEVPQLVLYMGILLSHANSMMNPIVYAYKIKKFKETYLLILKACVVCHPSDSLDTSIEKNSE
The experiment can be described thus: Cerep selectivity panel. Type of experiment: binding. As to conditions: for inhibition at 1 µM: read-out: % Inhibition at 1µM; for inhibition at 10 µM: read-out: % Inhibition at 10µM. The method, then:
as §1, §2

A further experiment addresses T7, Ab1 (h) (Homo sapiens, UniProt P08588).
T7 construct: purchased Cerep
In words: Cerep selectivity panel. Conditions: for inhibition at 1 µM: read-out: % Inhibition at 1µM; for inhibition at 10 µM: read-out: % Inhibition at 10µM. It counts as binding. The method, then:
as §1, §2

For the next experiment, the system named is CI Channel. The experiment can be described thus: Cerep selectivity panel. Type of experiment: binding.
In a further experiment the test system is OP2. The experiment can be described thus: Cerep selectivity panel. It counts as binding.
Experiment [1] relates to human CD4 T cells under Th17 conditions. The experiment can be described thus: cells. As to conditions: read-out: Th17 Proliferation (IC50, nM).

Molecules are shown by their SMILES. Like-named read-outs stand apart in the source and are kept apart here. Some results are limits rather than exact numbers.

T2 sequence (P29274 whole entry): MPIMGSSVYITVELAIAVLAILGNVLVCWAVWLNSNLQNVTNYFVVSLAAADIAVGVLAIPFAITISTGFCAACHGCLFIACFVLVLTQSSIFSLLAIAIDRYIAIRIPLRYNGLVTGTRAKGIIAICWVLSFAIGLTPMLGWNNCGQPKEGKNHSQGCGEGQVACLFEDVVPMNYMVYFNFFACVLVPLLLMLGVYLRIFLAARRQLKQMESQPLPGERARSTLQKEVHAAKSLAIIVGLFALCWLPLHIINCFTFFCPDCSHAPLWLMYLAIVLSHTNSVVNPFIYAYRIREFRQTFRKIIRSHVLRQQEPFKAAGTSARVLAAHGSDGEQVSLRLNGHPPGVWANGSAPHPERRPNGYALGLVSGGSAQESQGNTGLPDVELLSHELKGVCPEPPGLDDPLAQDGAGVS
T4 sequence (P37288 whole entry): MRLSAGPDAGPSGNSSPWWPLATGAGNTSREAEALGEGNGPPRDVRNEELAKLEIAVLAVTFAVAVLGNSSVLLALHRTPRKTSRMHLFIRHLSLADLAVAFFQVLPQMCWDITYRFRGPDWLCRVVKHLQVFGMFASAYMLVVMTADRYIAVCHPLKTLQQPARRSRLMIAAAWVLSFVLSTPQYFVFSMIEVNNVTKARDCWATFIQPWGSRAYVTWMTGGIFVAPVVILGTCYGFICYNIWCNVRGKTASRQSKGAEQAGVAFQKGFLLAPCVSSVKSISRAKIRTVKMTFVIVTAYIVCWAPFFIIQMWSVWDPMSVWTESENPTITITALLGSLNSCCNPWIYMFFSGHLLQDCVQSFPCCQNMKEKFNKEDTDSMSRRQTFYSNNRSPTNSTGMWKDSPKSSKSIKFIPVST
T7 sequence (P08588 whole entry): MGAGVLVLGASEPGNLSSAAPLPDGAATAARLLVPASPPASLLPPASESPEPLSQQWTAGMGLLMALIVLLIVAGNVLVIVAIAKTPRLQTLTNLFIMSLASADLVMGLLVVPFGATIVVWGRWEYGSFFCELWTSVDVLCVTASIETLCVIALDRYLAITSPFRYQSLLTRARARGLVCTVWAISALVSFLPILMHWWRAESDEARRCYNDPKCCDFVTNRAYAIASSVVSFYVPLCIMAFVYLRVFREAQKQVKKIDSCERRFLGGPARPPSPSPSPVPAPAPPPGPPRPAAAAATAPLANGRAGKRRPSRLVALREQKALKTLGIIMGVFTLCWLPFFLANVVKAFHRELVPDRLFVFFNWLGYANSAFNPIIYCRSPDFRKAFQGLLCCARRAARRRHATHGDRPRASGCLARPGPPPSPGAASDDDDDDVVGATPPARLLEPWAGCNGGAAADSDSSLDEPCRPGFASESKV
T5 sequence (P41143 whole entry): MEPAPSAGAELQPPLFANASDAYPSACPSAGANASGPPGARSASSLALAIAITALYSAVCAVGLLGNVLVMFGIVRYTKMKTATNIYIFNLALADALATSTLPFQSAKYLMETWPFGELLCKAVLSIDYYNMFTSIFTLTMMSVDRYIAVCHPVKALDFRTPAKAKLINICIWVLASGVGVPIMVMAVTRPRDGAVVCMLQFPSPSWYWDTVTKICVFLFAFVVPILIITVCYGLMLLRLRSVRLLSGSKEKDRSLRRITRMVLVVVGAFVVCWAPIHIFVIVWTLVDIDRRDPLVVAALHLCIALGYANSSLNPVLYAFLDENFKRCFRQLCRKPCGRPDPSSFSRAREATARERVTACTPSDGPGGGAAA
T1 sequence (Q01959 whole entry): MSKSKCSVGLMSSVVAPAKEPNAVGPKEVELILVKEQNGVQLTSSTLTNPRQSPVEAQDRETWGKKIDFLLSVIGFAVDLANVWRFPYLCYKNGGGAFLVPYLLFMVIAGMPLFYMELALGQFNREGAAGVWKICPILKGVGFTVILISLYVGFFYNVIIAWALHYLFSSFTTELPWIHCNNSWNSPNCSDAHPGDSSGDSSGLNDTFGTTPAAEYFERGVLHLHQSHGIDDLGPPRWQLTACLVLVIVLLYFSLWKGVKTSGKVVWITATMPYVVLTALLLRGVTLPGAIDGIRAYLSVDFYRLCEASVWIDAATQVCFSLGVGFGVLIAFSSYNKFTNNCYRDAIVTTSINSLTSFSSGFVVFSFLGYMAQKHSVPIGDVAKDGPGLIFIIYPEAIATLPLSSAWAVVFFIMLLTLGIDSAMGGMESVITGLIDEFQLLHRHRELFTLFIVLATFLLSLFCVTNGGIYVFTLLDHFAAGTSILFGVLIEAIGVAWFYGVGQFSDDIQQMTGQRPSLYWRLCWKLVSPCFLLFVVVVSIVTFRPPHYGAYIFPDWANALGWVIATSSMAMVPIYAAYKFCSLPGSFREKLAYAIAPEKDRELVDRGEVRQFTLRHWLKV

In the case of `COc1nc2ccc([C@@](O)(c3ccc(C)nc3C)c3cnnn3C)cc2c(Cl)c1Cc1ccc(C(F)(F)F)cc1` [compound A], the results for the “% Inhibition at 1µM” value in the experiment with GABA, in the experiment on CI Channel and in the experiment on OP2 (1 µM) were 8%, 26% and 9%, respectively. Also, the “% Inhibition at 10µM” value in the experiment with ML1 was 39%; in the experiment on CI Channel, 87%; with OP2, 37%. Also, the inhibition at 1 µM stood at 38% at DA-T (DA-T, 1 µM); 20% on A2A (h) (A2A (h), 1 µM); 9% at NK3 (h) (NK3 (h), 1 µM); 9% at OP1 (h) (OP1 (h), 1 µM); 49% on A3 (h) (A3 (h), 1 µM); 0% at Ab1 (h) (Ab1 (h), 1 µM). Besides, the inhibition at 10 µM at DA-T (DA-T, 10 µM) was determined as 81%; at A2A (h) (A2A (h), 10 µM), 5%; at NK3 (h) (NK3 (h), 10 µM), 57%; on V1 a (h) (V1 a (h), 10 µM) it was 19%; at OP1 (h) (OP1 (h), 10 µM), 27%; at A3 (h) (A3 (h), 10 µM) it was 92%. On Ab1 (h) (Ab1 (h), 10 µM), the inhibition at 10 µM is 10%. The IC50 in experiment [1] is over 240 nM.

On to `COc1nc2ccc([C@@](O)(c3ccccc3)C3CCN(C(C)=O)CC3)cc2c(Cl)c1Cc1ccc(-n2cccn2)cc1` [C], for which the “% Inhibition at 10µM” value was determined as 12% in the experiment on GABA (10 µM), 27% in the experiment with ML1, 45% in the experiment with CI Channel and 12% with OP2. Further, the figures for the “% Inhibition at 1µM” value in the experiment on ML1 and in the experiment on CI Channel were 4% and 16%, respectively. Moreover, the inhibition at 1 µM on DA-T worked out at 17%; at A2A (h), 18%; at NK3 (h), 21%; at OP1 (h), 9%; on A3 (h) it was 16%. In addition, the inhibition at 10 µM at DA-T was 25%; on A2A (h), 21%; on NK3 (h) it was 31%; on OP1 (h) it was 11%; on A3 (h), 41%. Besides, in experiment [1], the IC50 was over 240 nM.

On to `COc1nc2ccc([C@](O)(c3ccc(Cl)cc3)c3cncn3C)cc2c(Cl)c1Cc1ccc(-n2cccn2)cc1` [B], for which the “% Inhibition at 1µM” value was determined as 9% in the experiment with GABA, 13% in the experiment on ML1 and 24% in the experiment with CI Channel. Besides, the results for the “% Inhibition at 10µM” value with ML1, in the experiment on CI Channel and in the experiment with OP2 were 38%, 66% and 10%, respectively. The inhibition at 1 µM at NK3 (h) amounted to 1%; at V1 a (h) (read-out: % Inhibition at 1µM), 10%; on OP1 (h) it was 6%; at A3 (h), 9%; on Ab1 (h), 0%. The inhibition at 10 µM on NK3 (h) is 10%; at V1 a (h), 10%; at OP1 (h) it was 2%; at A3 (h) it was 20%; at Ab1 (h) it was 2%. Also, the IC50 in [1] was over 240 nM.

On to `CN(C)c1nc2ccc(C(O)(c3ccncc3)c3cncn3C)cc2c(Cl)c1-c1ccccc1` (stereo not shown) [compound D], for which the figures for the inhibition at 1 µM at DA-T, on A2A (h) and on Ab1 (h) were 23%, 2% and 3%, respectively. Besides, the inhibition at 10 µM on DA-T turned out to be 87%; at A2A (h) it was 43%; at NK3 (h), 45%; on V1 a (h) it was 12%; at OP1 (h) it was 36%; on A3 (h) it was 67%. For the same compound, the inhibition at 10 µM on Ab1 (h) is 2%.

Broadly, the % Inhibition is the percentage by which the read-out fell short of the control. Higher therefore signals strong suppression. A word on the inhibition: it is the percentage by which the read-out fell short of the control.
